According to patent publication US12133541B2, “Feed composition comprising hexahydro-β-acid component compounds and application thereof” (WISORIG TECHNOLOGIES PTE. LIMITED, priority 2019, dated 2024):
“Also recorded” adds a separate entry of the source. Like-named read-outs stand apart in the source and are kept apart here.

What was measured:
[1] = Stability testing at ambient temperature of feeds (HPLC); format: physicochemical; conditions: for Concentration (%) Day 5 / Concentration (%) Day 10: room temperature, day 0 = 100%
Excerpt: Stability testing at ambient temperature: The samples were placed in a room-temperature environment. Samples were taken on day 5 and day 10 for HPLC analysis, and three replications were taken in parallel for each test sample.

[2] = Breeding experiment: production performance of hogs; format: in vivo, Duroc×Landrace×Yorkshire cross-bred bacon-type piglets; conditions: for ADFI (g/d per piglet) / ADG (g/d per piglet) / FCR: basal ration with 25 ppm of active ingredient; for ADFI (g/d per piglet) / ADG (g/d per piglet) / FCR / animal production performance compared with the hexahydro-β-acids (in words) / change rate of feed intake compared with the control group / change rate of weight gain compared with the control group / decrease rate of feed conversion ratio compared with the control group: 14 days; for ADFI (g/d per piglet) / ADG (g/d per piglet): 67-day-old piglets; for FCR: feed intake/weight gain; for animal production performance compared with the hexahydro-β-acids (in words) / change rate of feed intake compared with the control group / change rate of weight gain compared with the control group / decrease rate of feed conversion ratio compared with the control group / average daily weight gain vs control (in words): piglets; for animal production performance compared with the hexahydro-β-acids (in words) / change rate of feed intake compared with the control group / change rate of weight gain compared with the control group / decrease rate of feed conversion ratio compared with the control group: 25 ppm; for average daily weight gain vs control (in words): difference above 5% deemed obvious
Excerpt: 240 67-day-old Duroc×Landrace×Yorkshire cross-bred bacon-type piglets with similar body weight, were randomly divided into 8 groups, with 3 replications per group, 10 piglets per replication and equal amount of males and females. The pig pen and tools were sterilized before the experiment. During the experiment, the piglets were kept in separate regions in the same pig pen under the same feeding and management conditions. The piglets were given ad libitum access to food and water, and feeds were provided twice every day. The groups were control group (group 1) and test groups 2 to 8, wherein piglets of the control group were given basal ration only, those of the test groups 2 to 8 were respectively given basal ration in combination with different additives with 25 ppm of active ingredient thereof, wherein the active ingredient was hexahydro-β-acids, or the hexahydro-β-acid compounds, or the coated substances of the hexahydro-β-acid compounds, as shown in Table 3.
During the entire process, each test group was not given other antioxidants or growth promoters. The experiment lasted for 14 days. On the 14th day, after withdrawing feed (without withdrawing water) for 12 hours, taking each replicate as one unit, the weight of each replication piglets was measured and each of average daily feed intake (ADFI, g/d per piglet), average daily weigh gain (ADG, g/d per piglet), and feed conversion ratio (FCR) was calculated. Average daily feed intake=(Total weight of provided feed−Weight of remaining feed)/(Number of days×Amount of piglets in each replicate) Average daily weight gain=(final average body weight−initial average body weight)/number of test days Feed conversion ratio=average daily feed intake/average daily weight gain

[3] = Breeding experiment: production performance of broilers; format: in vivo, yellow broilers; conditions: 30 days; for ADFI (g/d per broiler) / ADG (g/d per broiler) / FCR: basal ration with 25 ppm of active ingredient; for ADFI (g/d per broiler) / ADG (g/d per broiler): 1-day-old yellow broilers; for FCR: feed intake/weight gain
Description: The experiment was conducted with single-factor randomized design. 720 1-day-old yellow broilers with a similar average body weight of 50 g, were randomly divided into 8 groups, with 6 replicates per group, equal amount of males and females and 15 yellow broilers per replicate. The chicken house and tools were sterilized before the experiment. During the experiment, the broilers were kept in separate regions in the same chicken house under the same feeding and management conditions. Basal ration mainly consisted of corn and soybean meal. During the entire process, each group was not given other antioxidants or growth promoters. The groups were control group (group 1) and test groups 2 to 8, wherein the control group was given basal ration only, while the test groups 2 to 8 were respectively given basal ration in combination with the different additives with 25 ppm of the active ingredient thereof, wherein the active ingredient was hexahydro-β-acids, or the hexahydro-β-acid compounds, or the coated substances of the hexahydro-β-acid compounds as shown in Table 4.
The experiment lasted for 30 days. The broilers were given ad libitum access to food and water, and feeds were provided twice every day. At the day when the broilers were 31-day old (after withdrawing feed for 12 hours, without withdrawing water), taking each replicate as one unit, body weight of the broilers was measured, and each of average daily feed intake (ADFI, g/d per broiler), average daily weigh gain (ADG, g/d per broiler), and feed conversion ratio (FCR) was calculated. Feed conversion ratio (FCR)=average daily feed intake/average daily weight gain

[4] = 10 day, 1 wt %
Description: (§1) 50 mg of standard substance was accurately weighed out and dissolved in an appropriate amount of methanol by ultrasonication. The solution was then transferred to a 50 mL volumetric flask and diluted to volume with methanol to give a stock solution. Working solutions with concentration as 25 ppm, 125 ppm, 250 ppm, 500 ppm, and 1000 ppm were prepared respectively by the dilution of appropriate amount of the stock solution.
(§2) • Column: Symmetry C18 column (Waters; 250 mm*4.6 mm, 5 μm) • Mobile phase: 0.02% phosphoric acid:methanol=5:95 (v:v) • Wavelength: 223 nm • Column temperature: 25° C. • Injection volume: 10 μL • Flow rate: 1 mL/min
(§3) Thermal stability testing: The test samples were spread in petri dishes to form thin layers of ≤5 mm and placed in a drug stability testing chambers at 60° C. Samples were taken with 3 replications in parallel for each of test samples on day 5 and day 10 for HPLC analysis.

[5] = Thermal stability testing at 60° C. (HPLC); conditions: for Concentration (%) Day 5 / Concentration (%) Day 10: day 0 = 100%; for degradation ratio: 10-day testing period
Description: as §1, §2, §3

[6] = component within feed comprising 25 ppm of hexahydro-β-acids
[7] = 1% premix of hexahydro-β-acid compound
[8] = component within 1% premix of hexahydro-β-acids
[9] = component within hexahydro-β-acids
[10] = hexahydro-β-acid compound (free or coated substance)
[11] = feed comprising 25 ppm of hexahydro-β-acid compound

| Molecule | stability in feeds (in words) ([1]; ambient temperature) | Concentration (%) Day 5 [1, 6] [%] | Concentration (%) Day 10 [1, 6] [%] | ADFI (g/d per piglet) [2] [g/d per piglet] | ADG (g/d per piglet) [2] [g/d per piglet] | FCR [2] | change rate of feed intake compared with the control group [2] [%] | change rate of weight gain compared with the control group [2] [%] | decrease rate of feed conversion ratio compared with the control group [2] [%] | ADFI (g/d per broiler) [3] [g/d per broiler] | ADG (g/d per broiler) [3] [g/d per broiler] | FCR [3] | change rate of feed intake compared with the control group ([3]; broilers, 25 ppm) [%] | change rate of weight gain compared with the control group ([3]; broilers, 25 ppm) [%] | decrease rate of feed conversion ratio compared with the control group ([3]; broilers, 25 ppm) [%] | Concentration (%) Day 5 [5, 7] [%] | Concentration (%) Day 10 [5, 7] [%] | Concentration (%) Day 5 [5, 8] [%] | Concentration (%) Day 10 [5, 8] [%] | Concentration (%) Day 5 [5, 9] [%] | further results |
| --- | --- | --- | --- | --- | --- | --- | --- | --- | --- | --- | --- | --- | --- | --- | --- | --- | --- | --- | --- | --- | --- |
| CC(C)CCC1=C(O)C(C(=O)C(C)C)=C(O)C(CCC(C)C)(CCC(C)C)C1=O [Hexahydro-colupulone, hexahydro-colupulone] | excellent short-term stability; also recorded: favourable stability | 53.88 | 37.69 | 894 | 403 | 2.218 | 2.40 | 12.57 | 8.99 | 49.68 | 25.19 | 1.97 | 0.26 | 8.86 | 7.94 | 99.39 | 97.39 | 97.02 | 97.56 | 96.48 | animal production performance compared with the hexahydro-β-acids (in words) [2]: improve the animal production performance effectively; average daily weight gain vs control (in words) [2]: obvious increase; degradation ratio [4]: 2.6%; Concentration (%) Day 10 [5, 9]: 90.43%; decrease in the concentration ([5]; day 10, component within 1% premix of hexahydro-β-acids): about 2.4%; decrease in the concentration ([5]; day 10, component within hexahydro-β-acids): about 10%; Concentration (%) Day 5 [5, 10]: 99.76%; Concentration (%) Day 10 [5, 10]: 99.10% |
| hexahydro-adlupulone | excellent short-term stability; also recorded: favourable stability | 60.55 | 0 | 860 | 368 | 2.340 | 1.49 | 2.79 | 3.98 | 50.06 | 24.59 | 2.04 | 1.03 | 6.27 | 4.67 | 97.24 | 95.68 | 88.97 | 88.63 | 91.48 | animal production performance compared with the hexahydro-β-acids (in words) [2]: improve the animal production performance effectively; average daily weight gain vs control (in words) [2]: obvious increase; decrease in feed conversion ratio / feed efficiency (in words) ([3]; broilers, 25 ppm): more effective than hexahydro-β-acids; degradation ratio ([5]; 1% premix of the compound): 4.3%; Concentration (%) Day 10 [5, 9]: 82.87%; Concentration (%) Day 5 [5, 10]: 98.01%; Concentration (%) Day 10 [5, 10]: 96.63% |
| hexahydro-lupulone [reference compound] | very poor stability in feeds | 63.08 | 0 | 864 | 358 | 2.413 | −1.03 | 0 | 0.98 | 49.13 | 23.58 | 2.08 | −0.85 | 1.90 | 2.80 | 92.37 | 91.21 | 89.92 | 87.62 | 91.97 | decrease of active compound in feed ([1]; ambient temperature, 10-day period, feed with 25 ppm): 95%; Concentration (%) Day 5 [1, 11]: 17.78%; Concentration (%) Day 10 [1, 11]: 4.96%; degradation ratio ([5]; 1% premix of the compound): 8.8%; degradation ratio ([5]; compound or coated substance): 7.2%; Concentration (%) Day 10 [5, 9]: 79.62%; Concentration (%) Day 5 [5, 10]: 99.10%; Concentration (%) Day 10 [5, 10]: 92.85% |
